Laboratory results reported in patent publication US11339447B2, “System and method for determining Kareniticin sensitivity on cancer” (CROWN BIOSCIENCE, INC. (TAICANG), priority 2017, dated 2022).

Legend:
PDX CR2520 = test: karenitecin treatment of PDX model; assay type: in vivo; parameters: key to Response: responder: responded to karenitecin treatment (AUC<0.5 and TGI>0.8); non_responder: did not respond to karenitecin treatment (AUC>0.5 and TGI<0.6); details: karenitecin treatment for two weeks
Procedure: (§1) A cohort of 48 PDX models in 8 cancers were used in this study. Those models were subject to karenitecin treatment for two weeks. Both tumor growth inhibition (TGI) and median AUC (area under curve) ratio, a newly developed metric to evaluate drug efficacy, were calculated (Table 1). Those models can be divided into two categories according to TGI and median AUC ratio.

PDX CR2524 = test: karenitecin treatment of PDX model; assay type: in vivo; parameters: key to Response: responder: responded to karenitecin treatment (AUC<0.5 and TGI>0.8); non_responder: did not respond to karenitecin treatment (AUC>0.5 and TGI<0.6); details: karenitecin treatment for two weeks
Procedure: as §1

PDX CR2545 = test: karenitecin treatment of PDX model; assay type: in vivo; parameters: key to Response: responder: responded to karenitecin treatment (AUC<0.5 and TGI>0.8); non_responder: did not respond to karenitecin treatment (AUC>0.5 and TGI<0.6); details: karenitecin treatment for two weeks
Procedure: as §1

PDX CR3079 = test: karenitecin treatment of PDX model; assay type: in vivo; parameters: key to Response: responder: responded to karenitecin treatment (AUC<0.5 and TGI>0.8); non_responder: did not respond to karenitecin treatment (AUC>0.5 and TGI<0.6); details: karenitecin treatment for two weeks
Procedure: as §1

PDX CR3085 = test: karenitecin treatment of PDX model; assay type: in vivo; parameters: key to Response: responder: responded to karenitecin treatment (AUC<0.5 and TGI>0.8); non_responder: did not respond to karenitecin treatment (AUC>0.5 and TGI<0.6); details: karenitecin treatment for two weeks
Procedure: as §1

PDX CR3310 = test: karenitecin treatment of PDX model; assay type: in vivo; parameters: key to Response: responder: responded to karenitecin treatment (AUC<0.5 and TGI>0.8); non_responder: did not respond to karenitecin treatment (AUC>0.5 and TGI<0.6); details: karenitecin treatment for two weeks
Procedure: as §1

PDX ES0212 = test: karenitecin treatment of PDX model; assay type: in vivo; parameters: key to Response: responder: responded to karenitecin treatment (AUC<0.5 and TGI>0.8); non_responder: did not respond to karenitecin treatment (AUC>0.5 and TGI<0.6); details: karenitecin treatment for two weeks
Procedure: as §1

PDX GA0087 = test: karenitecin treatment of PDX model; assay type: in vivo; parameters: key to Response: responder: responded to karenitecin treatment (AUC<0.5 and TGI>0.8); non_responder: did not respond to karenitecin treatment (AUC>0.5 and TGI<0.6); details: karenitecin treatment for two weeks
Procedure: as §1

PDX GA0098 = test: karenitecin treatment of PDX model; assay type: in vivo; parameters: key to Response: responder: responded to karenitecin treatment (AUC<0.5 and TGI>0.8); non_responder: did not respond to karenitecin treatment (AUC>0.5 and TGI<0.6); details: karenitecin treatment for two weeks
Procedure: as §1

PDX LU0330 = test: karenitecin treatment of PDX model; assay type: in vivo; parameters: key to Response: responder: responded to karenitecin treatment (AUC<0.5 and TGI>0.8); non_responder: did not respond to karenitecin treatment (AUC>0.5 and TGI<0.6); details: karenitecin treatment for two weeks
Procedure: as §1

PDX LU0858 = test: karenitecin treatment of PDX model; assay type: in vivo; parameters: key to Response: responder: responded to karenitecin treatment (AUC<0.5 and TGI>0.8); non_responder: did not respond to karenitecin treatment (AUC>0.5 and TGI<0.6); details: karenitecin treatment for two weeks
Procedure: as §1

PDX LU1271 = test: karenitecin treatment of PDX model; assay type: in vivo; parameters: key to Response: responder: responded to karenitecin treatment (AUC<0.5 and TGI>0.8); non_responder: did not respond to karenitecin treatment (AUC>0.5 and TGI<0.6); details: karenitecin treatment for two weeks
Procedure: as §1

PDX LU1429 = test: karenitecin treatment of PDX model; assay type: in vivo; parameters: key to Response: responder: responded to karenitecin treatment (AUC<0.5 and TGI>0.8); non_responder: did not respond to karenitecin treatment (AUC>0.5 and TGI<0.6); details: karenitecin treatment for two weeks
Procedure: as §1

PDX LU1542 = test: karenitecin treatment of PDX model; assay type: in vivo; parameters: key to Response: responder: responded to karenitecin treatment (AUC<0.5 and TGI>0.8); non_responder: did not respond to karenitecin treatment (AUC>0.5 and TGI<0.6); details: karenitecin treatment for two weeks
Procedure: as §1

PDX PA0527 = test: karenitecin treatment of PDX model; assay type: in vivo; parameters: key to Response: responder: responded to karenitecin treatment (AUC<0.5 and TGI>0.8); non_responder: did not respond to karenitecin treatment (AUC>0.5 and TGI<0.6); details: karenitecin treatment for two weeks
Procedure: as §1

PDX PA3029 = test: karenitecin treatment of PDX model; assay type: in vivo; parameters: key to Response: responder: responded to karenitecin treatment (AUC<0.5 and TGI>0.8); non_responder: did not respond to karenitecin treatment (AUC>0.5 and TGI<0.6); details: karenitecin treatment for two weeks
Procedure: as §1

[1] = tested on: 48 PDX models in 8 cancers; test: karenitecin treatment of a cohort of 48 PDX models; assay type: in vivo; details: number of the 48 PDX models in 8 cancers; treatment for two weeks
Procedure: as §1

[2] = tested on: extensively pretreated ovarian cancer; details: previous clinical trial (Kavanagh 2008); cited from earlier work
[3] = prior studies, cited from earlier work

CC[C@@]1(O)C(=O)OCc2c1cc1n(c2=O)Cc2c-1nc1ccccc1c2CC[Si](C)(C)C [karenitecin]
Median AUC ratio (PDX CR2520): 0.914
Response (PDX CR2520): non_responder
TGI (PDX CR2520): 0.288
Median AUC ratio (PDX CR2524): 0.333
Response (PDX CR2524): responder
TGI (PDX CR2524): 1.120
Median AUC ratio (PDX CR2545): 0.597
Response (PDX CR2545): non_responder
TGI (PDX CR2545): 0.379
Median AUC ratio (PDX CR3079): 0.706
Response (PDX CR3079): non_responder
TGI (PDX CR3079): 0.381
Median AUC ratio (PDX CR3085): 0.019
Response (PDX CR3085): responder
TGI (PDX CR3085): 1.051
Median AUC ratio (PDX CR3310): −0.926
Response (PDX CR3310): responder
TGI (PDX CR3310): 1.727
Median AUC ratio (PDX ES0212): 0.061
Response (PDX ES0212): responder
TGI (PDX ES0212): 1.017
Median AUC ratio (PDX GA0087): −1.097
Response (PDX GA0087): responder
TGI (PDX GA0087): 1.316
Median AUC ratio (PDX GA0098): 0.512
Response (PDX GA0098): non_responder
TGI (PDX GA0098): 0.482
Median AUC ratio (PDX LU0330): 1.094
Response (PDX LU0330): non_responder
TGI (PDX LU0330): 0.000
Median AUC ratio (PDX LU0858): 0.027
Response (PDX LU0858): responder
TGI (PDX LU0858): 1.000
Median AUC ratio (PDX LU1271): −0.007
Response (PDX LU1271): responder
TGI (PDX LU1271): 1.081
Median AUC ratio (PDX LU1429): 0.076
Response (PDX LU1429): responder
TGI (PDX LU1429): 1.054
Median AUC ratio (PDX LU1542): −3.610
Response (PDX LU1542): responder
TGI (PDX LU1542): 1.195
Median AUC ratio (PDX PA0527): 0.316
Response (PDX PA0527): responder
TGI (PDX PA0527): 0.996
Median AUC ratio (PDX PA3029): 0.768
Response (PDX PA3029): non_responder
TGI (PDX PA3029): 0.423
models did not respond to karenitecin treatment (AUC>0.5 and TGI<0.6) [1]: 17
models responded to karenitecin treatment (AUC<0.5 and TGI>0.8) [1]: Thirty-one
response rate [2]: low
incidence of severe diarrhea ([3]; compared with irinotecan): lower
incidence and severity of anemia, neutropenia and thrombocytopenia ([3]; compared with topotecan): lower
